{"source": "patent US5164411A", "about": "“Pyrethroid compositions” (priority 1991, dated 1992)", "key": {"[1]": {"tested_on": "rainbow trout (Oncorhynchus mykiss)", "experiment": "Ninety-six-hour flow-through acute toxicity, rainbow trout", "format": "in vivo", "procedure": "Ninety-six-hour flow-through acute toxicity studies of both cypermethrin and sigma-cypermethrin were conducted in the rainbow trout (Oncorhynchus mykiss) and in the sheepshead minnow (Cyprinodon variagatus) to determine the median-lethal-concentration (LC50) resulting from continuous exposure. For the rainbow trout the exposure medium was well water; for the sheepshead minnow, filtered seawater. Each group of 20 fish (10 per replicate aquarium) was exposed either to one of five concentrations of pyrethroid delivered in a diluter system in dimethylformamide (DMF), to 30 μL/L DMF in the exposure medium (solvent control), or to the exposure medium alone (control). Observations for mortality, morbidity, and other overt signs of toxicity were determined at prescribed intervals. Concentrations of the test materials were measured at the beginning and end of the exposure using a validated HPLC method. The cypermethrin isomer content (weight %) of the sigma-cypermethrin technical product used in this study was total isomers--88.2%, S-isomers--82%, cis/trans ratio--53/47."}, "[2]": {"tested_on": "mammals and certain species of fish", "experiment": "Mammalian toxicology and fish toxicity, summary of the tests", "format": "in vivo, rat; fish", "conditions": "at rates giving commercial control of target crop insects", "procedure": "In the 90-day feeding study, conducted in compliance with EPA guideline 82-1, the compound under test was administered continuously in the diet to groups of rats for at least ninety days at concentrations of 0, 150, and 1500 ppm to groups of fifteen Sprague-Dawley rats for cypermethrin and 0, 10, 50, 150, 250, 500, and 900 ppm to groups of ten Fisher 344 rats for sigma-cypermethrin. (The rates for sigma-cypermethrin were lower, because it was expected to be more toxic than cypermethrin.) The cypermethrin isomer content (weight %) of the sigma-cypermethrin technical product used in this study was total isomers--88.2%, S-isomers--82%, cis/trans ratio--53/47. Individual body weight and food consumption values were recorded weekly. At termination, hematology and clinical chemistry determinations were conducted and organ weights were obtained for adrenals, brain, heart, kidneys, liver, and ovaries or testes. […]\nMultigeneration studies were conducted in compliance with EPA guideline 83-4 and provide information on reproductive parameters as well as neonatal morbidity and mortality for multiple generations. […] Body weights and food consumption were recorded at regular intervals. […]"}}, "data": [{"smiles": "CC1(C)C(C=C(Cl)Cl)C1C(=O)O[C@H](C#N)c1cccc(Oc2ccccc2)c1", "note": "(mixture of isomers) [sigma-cypermethrin, (S)(cyano)(3-phenoxyphenyl)methyl cis/trans-3-(2,2-dichloroethenyl)-2,2-dimethylcyclopropanecarboxylate]", "values": [{"measurement": "ratio of the cypermethrin LC50 to the sigma-cypermethrin LC50", "setting": "[1]", "result": 1.3}, {"measurement": "toxicity relative to cypermethrin", "setting": "[2]", "result": "significantly less toxic to mammals and certain species of fish"}]}]}
